Experimental data published in ChEMBL document CHEMBL1201862, “PubChem BioAssay data set” (2004).
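Where inhibition never reached the appropriate level, the endpoint shown equals the highest concentration tested. Otherwise, values were interpolated linearly from a five-concentration, 48-hour dose response in 96-well plates. GI50 is the concentration that inhibits growth by half.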 Active and inactive are the calls of the source. Cut-off read from the data, not from the text of the source: active = GI50 up to about 1.1 µM and inactive = higher.

Assays:
Assay in all cases: growth of human tumour cells (NCI), 48 h
[1] = test system: MDA-N
[2] = test system: U-251
[3] = test system: CAKI-1
[4] = test system: OVCAR-4
[5] = test system: HCT-15
[6] = test system: MDA-MB-435
[7] = test system: KM12
[8] = test system: MDA-MB-231
[9] = test system: HL-60
[10] = test system: TK-10
[11] = test system: Malme-3M
[12] = test system: SK-MEL-2
[13] = test system: HCT-116
[14] = test system: K562
[15] = test system: SK-MEL-5
[16] = test system: M14
[17] = test system: SR
[18] = test system: HOP-92

Measured: GI50

O=C(O)c1cccc2cccc(-c3cccc4cccc(C(=O)O)c34)c12
inactive: [1] > 100 µM | [2] > 100 µM | [3] > 100 µM | [4] > 100 µM | [6] > 100 µM | [7] > 100 µM | [8] > 100 µM | [9] > 100 µM | [10] > 100 µM | [11] > 100 µM | [12] > 100 µM | [13] > 100 µM | [14] > 100 µM | [15] > 100 µM | [16] > 100 µM
> 100 µM: [5]

O=[N+]([O-])c1ccc(-c2nc3ccccc3o2)cc1
inactive: [1] > 100 µM | [2] > 100 µM | [3] > 100 µM | [4] > 100 µM | [17] > 100 µM | [6] > 100 µM | [7] > 100 µM | [10] > 100 µM | [18] > 100 µM | [11] > 100 µM | [12] > 100 µM | [13] > 100 µM | [14] > 100 µM | [15] > 100 µM | [16] > 100 µM
> 100 µM: [5]

CCCCCCc1cc2cc(-c3cn4c(n3)sc3ccccc34)c(=O)oc2cc1O
> 75.7 µM: [5]
inactive: [2] > 100 µM | [3] > 100 µM | [4] 3.98 µM | [17] > 29.8 µM | [6] 3.46 µM | [7] > 26.9 µM | [8] > 100 µM | [9] > 60.3 µM | [10] > 100 µM | [18] > 100 µM | [11] 2.36 µM | [12] > 100 µM | [13] > 95.1 µM | [14] > 100 µM | [15] > 100 µM | [16] 4.94 µM

Cc1cc2c(cc1Cl)SSc1cc(Cl)c(C)cc1S(=O)(=O)Nc1nc(N)nn1C(O)n1nc(N)nc1NS2(=O)=O
inactive: [1] > 10 µM | [2] > 10 µM | [3] > 10 µM | [4] > 10 µM | [17] > 10 µM | [7] > 10 µM | [9] > 10 µM | [10] > 10 µM | [18] > 10 µM | [11] > 10 µM | [12] > 10 µM | [13] > 10 µM | [14] > 10 µM | [15] > 10 µM | [16] > 10 µM
> 10 µM: [5]

N#CCCN(CCC#N)c1ccc(/C=C2\N=C(c3ccccc3)N(c3ccc(C(=O)O)cc3)C2=O)cc1
inactive: [1] > 100 µM | [2] 30.2 µM | [4] 14.4 µM | [6] 31.8 µM | [7] 17.2 µM | [8] 52 µM | [9] > 10 µM | [10] > 100 µM | [18] 6.28 µM | [12] 52.5 µM | [13] 33.7 µM | [14] 38.2 µM | [15] 36.6 µM | [16] 72.1 µM
40.8 µM: [5]

CC1=C(C(=O)N(C)c2ccc(Cl)c(C(=O)OC(C)C)c2)SCCO1
inactive: [2] 92.3 µM | [3] > 100 µM | [4] 42.4 µM | [6] 48.6 µM | [7] 55 µM | [8] > 100 µM | [9] 33.7 µM | [10] 84.7 µM | [18] > 100 µM | [11] 72.3 µM | [12] > 100 µM | [13] 59.2 µM | [14] 29 µM | [15] 29.6 µM | [16] > 100 µM
74 µM: [5]

O=[N+]([O-])C(C(Cl)=C(Cl)Cl)=C(N(Cc1ccccc1)Cc1ccccc1)N(Cc1ccccc1)Cc1ccccc1
> 100 µM: [5]
inactive: [1] 45.3 µM | [2] > 100 µM | [3] > 100 µM | [6] 28.2 µM | [7] > 100 µM | [8] 70.6 µM | [9] 17.3 µM | [10] > 100 µM | [18] 15.6 µM | [11] 34 µM | [12] 36.4 µM | [13] 42.1 µM | [14] 33.7 µM | [15] 42.8 µM | [16] 34.8 µM

O=C(Nc1ccc(Cl)cc1C(F)(F)F)C(=O)Nn1c(S)nc2ccccc2c1=O
> 100 µM: [5]
inactive: [1] > 100 µM | [2] > 100 µM | [3] > 100 µM | [4] 60.4 µM | [6] > 100 µM | [7] > 100 µM | [8] > 100 µM | [9] 60.5 µM | [10] > 100 µM | [18] 3.99 µM | [12] > 100 µM | [13] > 100 µM | [14] > 100 µM | [15] > 100 µM | [16] > 100 µM
